Results from patent US9339549B2, “Cationic graft-copolymer for drug delivery system” (priority 2013, dated 2016).
In brackets after ≈: the same amount, converted by molar mass.

Assays:
[1] = test system: NIH/3T3 cells (mouse embryonic fibroblast cell line); assay: MTT test using NIH/3T3 cells; type: cell-based; details: incubation 50 hours at 37° C.
Experimental: Following procedure by MTT assay of DESCRIPTION OF EMBODIMENTS (4), after incubation of NIH/3T3 cells (mouse embryonic fibroblast cell line) for 50 hours at 37° C., cell viability was examined.
This test is a quantitative colorimetric method to determine cell proliferation. It utilizes the yellow tetrazolium salt [3-(4,5-Dimethylthiazol-2-yl)-2,5-diphenyltetrazolium-bromide] which is metabolized by mitochondrial succinic dehydrogenase activity of proliferating cells to yield a purple formazan reaction product.
The formazan is then solubilized by isopropyl alcohol, and the concentration determined by optical density at 570 nm and cell survival was calculated using the following formula: Cell survival (%)=((As−Ab)/(Ac−Ab))×100
Where, As=absorbance of the sample, Ac=absorbance of the control well […] and Ab=absorbance of the blank well.
1. Plate cells into 96-well tissue culture plates. Cells should be seeded at densities of 10,000 cells per well since they will reach optimal population densities within 24 to 48 hours.
2. Carry out the experiment by adding DDMC/PTX or PTX into appropriate well. The final volume of tissue culture medium in each well is 0.1 mL, and the medium may contain up to 10% Fetal Bovine Serum.
3. Use one vial of MTT solution for each 96-well plate assay.
4. Add 10 μL MTT solution to each well. […]
7. Read absorbance at 570 nm cell survival (%)=((As−Ab)/(Ac−Ab))×100

B16F10 melanoma cells = assay: Anti-tumor effects and survival in B16F10 tumor-bearing C57BL/6 mice; type: in vivo, mouse
Experimental: In vivo analysis for melanoma cells is investigated by C57BL/6 female mouse. Anti-tumor effects and survival rates were investigated in tumor-bearing mice.
To evaluate the anti-tumor effects of DMMC/PTX complex, tumor-bearing mice were prepared by inoculating B16F10 melanoma cells S.C onto the back of C57BL/6 female mouse (2.0×10^6 cells/mouse). At average 1885 mm^3 of tumor volume, 12 days after inoculation, paclitaxel (PTX), DMMC/PTX4 (particle size 50 nm), DMMC/PTX5 (particle size 290 nm), and […] were administrated by I.P. injection three times (at a dose of 10 mg PXL/kg, on days 12, 14, and 16). Tumor size was measured with a digital vernier caliper and the volume was calculated using the relation V (mm^3)=(a×b^2)/2 where a is the longer, and b is the shorter diameter. The survival periods also monitored at 2 day intervals.
The tumor growth inhibitory activities were evaluated using B16F10 in xeno-graft tumor-bearing C57BL/6 mice. The tumors rapidly grew in size when the mice were treated with saline and PTX. […] The mean tumor volumes increase rate in the PTX, […], DDMC/PTX4 and DDMC/PTX5 groups were 1.85, 1.84, 1.39 and 1.53, respectively.

[2] = I.P. three times, 10 mg PXL/kg on days 12, 14, 16, B16F10 tumor-bearing C57BL/6 mice

CC(=O)O[C@H]1C(=O)[C@@]2(C)[C@H]([C@H](OC(=O)c3ccccc3)[C@]3(O)C[C@H](OC(=O)[C@H](O)[C@@H](NC(=O)c4ccccc4)c4ccccc4)C(C)=C1C3(C)C)[C@]1(OC(C)=O)CO[C@@H]1C[C@@H]2O [control 1, paclitaxel]
IC50 ([1]; Mus musculus, NIH3T3, 50 h, read-out: IC50 (μg/ml), MTT): 3 µg/mL (≈ 3.51 µM)

CC(=O)O[C@H]1C(=O)[C@@]2(C)[C@H]([C@H](OC(=O)c3ccccc3)[C@]3(O)C[C@H](OC(=O)[C@H](O)[C@@H](NC(=O)c4ccccc4)c4ccccc4)C(C)=C1C3(C)C)[C@]1(OC(C)=O)CO[C@@H]1C[C@@H]2O [control 2, paclitaxel]
IC50 (μg/ml), MTT [1]: 4.5 µg/mL (≈ 5.27 µM)

paclitaxel [PTX]
mean tumor volumes increase rate (B16F10 melanoma cells; [2]): 1.85 | median survival time (50%, MST) (B16F10 melanoma cells; [2]): 176 h | T/C of median survival time (B16F10 melanoma cells; relative to serine (saline) group = 1.0): 1.46
